In patent US8063048B2, “Acetylenyl-pyrazolo-pyrimidine derivatives” (Hoffmann-La Roche Inc., priority 2005, dated 2011):

## O=S(=O)(Nc1cccnc1)c1ccc(C#Cc2cnn3c(C(F)F)cc(-c4ccc(C(F)(F)F)cc4)nc23)s1 [Example 281, 5-[7-Difluoromethyl-5-(4-trifluoromethyl-phenyl)-pyrazolo[1,5-a]pyrimidin-3-ylethynyl]-thiophene-2-sulfonic acid pyridin-3-ylamide]
  melting point: 226 °C

## NS(=O)(=O)c1cccc(C#Cc2cnn3c(C(F)(F)F)cc(-c4ccc(Cl)c(Cl)c4)nc23)c1 [Example 93, 3-[5-(3,4-Dichloro-phenyl)-7-trifluoromethyl-pyrazolo[1,5-a]pyrimidin-3-ylethynyl]-benzenesulfonamide]
  melting point: 230 to 231 °C

## Nc1ccc(C#Cc2cnc3c(C4CC4)cc(-c4ccc(Cl)cc4)cn23)cn1 [Example 233, 5-[6-(4-Chloro-phenyl)-8-cyclopropyl-imidazo[1,2-a]pyridin-3-ylethynyl]-pyridin-2-ylamine]
  melting point: 246 °C

## CC(C)(O)c1cc(-c2ccc(Cl)cc2)nc2c(C#Cc3ccc(S(N)(=O)=O)cc3)cnn12 [Example 153, 4-[5-(4-Chloro-phenyl)-7-(1-hydroxy-1-methyl-ethyl)-pyrazolo[1,5-a]pyrimidin-3-ylethynyl]-benzenesulfonamide]
  melting point: 267 to 269 °C

## Cc1cc(-c2cc(C(F)(F)F)n3ncc(C#Cc4ncc(S(N)(=O)=O)s4)c3n2)ccc1Cl [Example 104, 2-[5-(4-Chloro-3-methyl-phenyl)-7-trifluoromethyl-pyrazolo[1,5-a]pyrimidin-3-ylethynyl]-thiazole-5-sulfonic acid amide]
  melting point: 123 °C

## CC(C)(CO)NS(=O)(=O)c1cncc(C#Cc2cnn3c(C(F)F)cc(-c4ccc(C(F)(F)F)cc4)nc23)c1 [Example 27, 5-[7-Difluoromethyl-5-(4-trifluoromethyl-phenyl)-pyrazolo[1,5-a]pyrimidin-3-ylethynyl]-pyridine-3-sulfonic acid (2-hydroxy-1,1-dimethyl-ethyl)-amide]
  melting point: 200 to 201 °C

## CC(C)(C)c1cc(-c2ccc(Cl)cc2)nc2c(C#Cc3ccc(S(N)(=O)=O)s3)cnn12 [Example 307, 5-[7-tert.-Butyl-5-(4-chloro-phenyl)-pyrazolo[1,5-a]pyrimidin-3-ylethynyl]-thiophene-2-sulfonic acid amide]
  melting point: 253 to 255 °C

## Cc1cc(-c2cc(C(F)(F)F)n3ncc(C#Cc4ccc(S(=O)(=O)NCCN(C)C)s4)c3n2)ccc1Cl [Example 257, 5-[5-(4-Chloro-3-methyl-phenyl)-7-trifluoromethyl-pyrazolo[1,5-a]pyrimidin-3-ylethynyl]-thiophene-2-sulfonic acid (2-dimethylamino-ethyl)-amide]
  melting point: 179 °C

## Cc1cc(-c2cc(C(F)(F)F)n3ncc(C#Cc4ccc(S(=O)(=O)N5CCN(C)CC5)s4)c3n2)ccc1Cl [Example 258, 5-(4-Chloro-3-methyl-phenyl)-3-[5-(4-methyl-piperazine-1-sulfonyl)-thiophen-2-ylethynyl]-7-trifluoromethyl-pyrazolo[1,5-a]pyrimidine]
  melting point: 229 °C

## NS(=O)(=O)c1ccc(C#Cc2cnn3ccc(-c4ccc(C(F)(F)F)cc4)nc23)s1 [Example 311, 5-[5-(4-Trifluoromethyl-phenyl)-pyrazolo[1,5-a]pyrimidin-3-ylethynyl]-thiophene-2-sulfonic acid amide]
  melting point: 224 to 226 °C

## FC(F)(F)c1cc(-c2ccc(Cl)cc2)nc2c(C#Cc3cccnc3)cnn12 [Example 21, 5-(4-Chloro-phenyl)-3-pyridin-3-ylethynyl-7-trifluoromethyl-pyrazolo[1,5-a]pyrimidine]
  melting point: 214 to 215 °C

## NS(=O)(=O)c1cc(C#Cc2cnn3c(C4CC4)cc(-c4ccc(C(F)(F)F)cc4)nc23)c(F)cc1F [Example 77, 5-[7-Cyclopropyl-5-(4-trifluoromethyl-phenyl)-pyrazolo[1,5-a]pyrimidin-3-ylethynyl]-2,4-difluoro-benzenesulfonamide]
  melting point: 255 to 257 °C

## NS(=O)(=O)c1cccc(C#Cc2cnn3c(C(F)(F)F)cc(-c4ccc(Cl)cc4)nc23)c1 [Example 98, 3-[5-(4-Chloro-phenyl)-7-trifluoromethyl-pyrazolo[1,5-a]pyrimidin-3-ylethynyl]-benzenesulfonamide]
  melting point: 218 to 220 °C

## CN(C)CCNS(=O)(=O)c1ccc(C#Cc2cnn3c(C(F)F)cc(-c4ccc(C(F)(F)F)cc4)nc23)s1 [Example 253, 5-[7-Difluoromethyl-5-(4-trifluoromethyl-phenyl)-pyrazolo[1,5-a]pyrimidin-3-ylethynyl]-thiophene-2-sulfonic acid (2-dimethylamino-ethyl)-amide]
  melting point: 132 °C

## NCCNS(=O)(=O)c1ccc(C#Cc2cnn3c(C(F)(F)F)cc(-c4cccc(C(F)(F)F)c4)nc23)s1 [Example 262, 5-[7-Trifluoromethyl-5-(3-trifluoromethyl-phenyl)-pyrazolo[1,5-a]pyrimidin-3-ylethynyl]-thiophene-2-sulfonic acid (2-amino-ethyl)-amide]
  melting point: 196 °C

## NS(=O)(=O)c1ccc(C#Cc2cnn3c(C(F)(F)F)cc(-c4ccc(Cl)c(Cl)c4)nc23)cc1 [Example 94, 4-[5-(3,4-Dichloro-phenyl)-7-trifluoromethyl-pyrazolo[1,5-a]pyrimidin-3-ylethynyl]-benzenesulfonamide]
  melting point: 273 to 274 °C

## CC(C)(CO)NS(=O)(=O)c1cccc(C#Cc2cnn3c(C(F)(F)F)cc(-c4cccc(C(F)(F)F)c4)nc23)c1 [Example 107, N-(2-Hydroxy-1,1-dimethyl-ethyl)-3-[7-trifluoromethyl-5-(3-trifluoromethyl-phenyl)-pyrazolo[1,5-a]pyrimidin-3-ylethynyl]-benzenesulfonamide]
  melting point: 132 °C

## NS(=O)(=O)c1ccc(C#Cc2cnn3c(C(F)(F)F)cc(-c4ccc(C(F)(F)F)cc4)nc23)c(F)c1 [Example 45, 3-Fluoro-4-[7-trifluoromethyl-5-(4-trifluoromethyl-phenyl)-pyrazolo[1,5-a]pyrimidin-3-ylethynyl]-benzenesulfonamide]
  melting point: 230 to 232 °C

## CC(C)(O)c1ccc(C#Cc2cnn3c(C(F)(F)F)cc(-c4ccc(C(F)(F)F)cc4)nc23)cc1 [Example 202, 2-{4-[7-Trifluoromethyl-5-(4-trifluoromethyl-phenyl)-pyrazolo[1,5-a]pyrimidin-3-ylethynyl]-phenyl}-propan-2-ol]
  melting point: 170 to 171 °C

## Cc1cc(-c2ccc(C(F)(F)F)cc2)nc2c(C#Cc3ccc(S(N)(=O)=O)cc3)cnn12 [Example 150, 4-[7-Methyl-5-(4-trifluoromethyl-phenyl)-pyrazolo[1,5-a]pyrimidin-3-ylethynyl]-benzenesulfonamide]
  melting point: 282 to 284 °C

## Cc1cc(-c2cc(C(F)(F)F)n3ncc(C#Cc4ccc(S(=O)(=O)NC(C)(C)C)s4)c3n2)ccc1Cl [Example 115, 5-[5-(4-Chloro-3-methyl-phenyl)-7-trifluoromethyl-pyrazolo[1,5-a]pyrimidin-3-ylethynyl]-thiophene-2-sulfonic acid tert-butylamide]
  melting point: 244 °C

## Nc1ncc(C#Cc2cnc3c(F)cc(-c4ccc(Cl)cc4)cn23)cn1 [Example 242, 5-[6-(4-Chloro-phenyl)-8-fluoro-imidazo[1,2-a]pyridin-3-ylethynyl]-pyrimidin-2-ylamine]
  melting point: 279 to 280 °C

## CC(C)(C)NS(=O)(=O)c1ccc(C#Cc2cnn3c(C(F)F)cc(-c4cccc(C(F)(F)F)c4)nc23)s1 [Example 161, 5-[7-Difluoromethyl-5-(3-trifluoromethyl-phenyl)-pyrazolo[1,5-a]pyrimidin-3-ylethynyl]-thiophene-2-sulfonic acid tert-butylamide]
  melting point: 201 °C

## NS(=O)(=O)c1cccc(C#Cc2cnn3c(C(F)F)cc(-c4ccc(C(F)(F)F)cc4)nc23)c1 [Example 42, 3-[7-Difluoromethyl-5-(4-trifluoromethyl-phenyl)-pyrazolo[1,5-a]pyrimidin-3-ylethynyl]-benzenesulfonamide]
  melting point: 246 to 247 °C

## CC(CO)(CO)NS(=O)(=O)c1cncc(C#Cc2cnn3c(C4CC4)cc(-c4ccc(C(F)(F)F)cc4)nc23)c1 [Example 80, 5-[7-Cyclopropyl-5-(4-trifluoromethyl-phenyl)-pyrazolo[1,5-a]pyrimidin-3-ylethynyl]-pyridine-3-sulfonic acid (2-hydroxy-1-hydroxymethyl-1-methyl-ethyl)-amide]
  melting point: 190 to 191 °C

## O=S(=O)(Nc1ccncc1)c1ccc(C#Cc2cnn3c(C(F)(F)F)cc(-c4ccc(C(F)(F)F)cc4)nc23)s1 [Example 280, 5-[7-Trifluoromethyl-5-(4-trifluoromethyl-phenyl)-pyrazolo[1,5-a]pyrimidin-3-ylethynyl]-thiophene-2-sulfonic acid pyridin-4-ylamide]
  melting point: 209 °C

## CCc1cc(-c2ccc(Cl)cc2)nc2c(C#Cc3ccc(N)nc3)cnn12 [Example 304, 5-[5-(4-Chloro-phenyl)-7-ethyl-pyrazolo[1,5-a]pyrimidin-3-ylethynyl]-pyridin-2-ylamine]
  melting point: 205 to 206 °C

## FC(F)(F)c1ccc(-c2cc(C(F)(F)F)n3ncc(C#Cc4cncnc4)c3n2)cc1 [Example 44, 3-Pyrimidin-5-ylethynyl-7-trifluoromethyl-5-(4-trifluoromethyl-phenyl)-pyrazolo[1,5-a]pyrimidine]
  melting point: 175 °C

## CC(C)(C)NS(=O)(=O)c1ccc(C#Cc2cnn3c(C(F)F)cc(-c4ccc(C(F)(F)F)cc4)nc23)s1 [Example 165, 5-[7-Difluoromethyl-5-(4-trifluoromethyl-phenyl)-pyrazolo[1,5-a]pyrimidin-3-ylethynyl]-thiophene-2-sulfonic acid tert-butylamide]
  melting point: 187 °C

## COc1ccc(C#Cc2cnn3ccc(-c4ccc(Cl)cc4)nc23)cc1S(=O)(=O)NC(C)(C)CO [Example 75, 5-[5-(4-Chloro-phenyl)-pyrazolo[1,5-a]pyrimidin-3-ylethynyl]-N-(2-hydroxy-1,1-dimethyl-ethyl)-2-methoxy-benzenesulfonamide]
  melting point: 264 to 266 °C

## NS(=O)(=O)c1cc(C#Cc2ncn3c(C(F)(F)F)cc(-c4ccc(C(F)(F)F)cc4)nc23)c(F)cc1F [Example 177, 2,4-Difluoro-5-[4-trifluoromethyl-2-(4-trifluoromethyl-phenyl)-imidazo[1,5-a]pyrimidin-8-ylethynyl]-benzenesulfonamide]
  melting point: 247 °C
